The values that follow come from US20170119034A1, “COMPOSITIONS AND METHODS FOR MODIFYING PERCEPTION OF SWEET TASTE” (University of Florida Research Foundation, Inc., priority 2012, published 2017).

Experiment [1] relates to tomato flavor intensity (consumer panel). Nature of the experiment: Tomato consumer taste panel: overall tomato flavor intensity (gLMS) versus fruit chemical content. Type of experiment: in vivo, human. The settings on record: for association with flavor intensity: univariate models. How it is done: (§1) Sensory analysis. Fully ripe fruit were harvested, and used for taste panels. A random subset of fruit was used for biochemical analysis. Three biological replicates, each consisting of 2-20 fruit (depending on fruit size), were assayed for each variety. […] Panelists were between the ages of 18 and 78 with a median age of 22. […] An average of 85 (range of 66-95) of these panelists evaluated between 4-6 varieties in a session. All panelists went through a training session to familiarize them with the scaling and procedures. Tomatoes were sliced into wedges (or in halves for grape/cherry types) and each panelist was given two pieces for evaluation. Panelists took a bite of each sample, chewed and swallowed it, and rated overall liking and liking for texture. They then rated the perceived intensities of sweetness, sourness, saltiness, umami sensation, bitterness and overall tomato flavor. They were free to take as many bites as necessary to complete the assessments. They were instructed to take a bite of an unsalted cracker and a sip of water between samples. Samples were presented to the panelists in a randomized order. Hedonic ratings used the hedonic gLMS. This scale assesses the liking for tomatoes in the context of all pleasure/displeasure experiences: 0=neutral, −100=strongest disliking of any kind experienced, and +100=strongest liking of any kind experienced. Sensory intensity ratings used the gLMS (7, 8, 19).This scale assesses taste and flavor sensations in the context of all sensory experience (7): 0=no sensation, 100=strongest sensation of any kind experienced. Both scales were devised to provide valid comparisons across subjects.
(§2) Statistical analysis. The 68 chemical compounds measured in this experiment were divided into six groups based upon biochemical properties: sugars, branched chain amino acids, lipids, carotenoids, phenolics, and acids. A small number of compounds for which biosynthetic pathways are not established were assigned to one of the six classes based upon their correlations with other classified compounds. All pairwise correlations among the set of 68 compounds were calculated. Correlation coefficients were sorted using Modulated Modularity Clustering (MMC) (9) as a visual aid for identifying compounds that are closely related in this sample (FIG. 1; Table 4). Biochemical groups were examined for compounds within the group that were highly correlated and compounds that were upstream in the relevant metabolic pathways were preferentially selected.
(§3) All analyses were performed in SAS v 9.2.

The test system of experiment [2] is perceived sweetness of tomato fruit (consumer panel). The settings on record: analysis of a volatile subset (Tieman 2012); cited from earlier work.
Experiment [3] has the same test system. Nature of the experiment: Tomato consumer taste panel: perceived sweetness (gLMS) regressed on fruit chemical content. The format is in vivo, human. Conditions: for association with sweetness after accounting for fructose / correlation with sweetness / contribution to perceived sweetness / association with sweetness: tomato; for correlation with sweetness: direction of correlation; for contribution to perceived sweetness: multiple regression analysis using the volatiles; for association with sweetness: univariate models. The procedure:
as §1, §2, §3
In conducting the multiple regression analysis on the tomato data set, the independent variables were the sugar content (glucose+fructose), and the flavor (indicated by the retronasal perception of volatiles), while the dependent variable was the perceived sweetness.

The subject of experiment [4] is strawberry flavor intensity (consumer panel). Nature of the experiment: Strawberry consumer panel: bivariate fit to strawberry flavor intensity. The format is in vivo, human. The settings on record: bivariate linear fit; X = content of the substance in strawberry fruit, Y = Flavor Intensity (FI). The procedure:
(§4) All consumer panels were approved by the University of Florida Institutional Review Board. […] Ages of panelist ranged from 18 to 71, with a median age of 24. Panelists self-classified themselves as 98 White or Caucasian, 11 Black or African-American, 1 Native American, Alaska Native or Aleutian, 41 Asian/Pacific Islander, and 15 Other. […] Fresh, fully-ripe strawberry fruit was removed from overnight 4° C. dark storage and allowed to warm to room temperature prior to sensory analysis. Each panelist was given one to two whole strawberries for evaluation, depending on cultivar availability. Panelist took a bite of each sample, chewed, and swallowed it. Ratings for overall liking and liking for texture were scaled on hedonic general labeled magnitude scale (gLMS) in the context of all pleasure/displeasure experiences. […] Scales were employed to mediate valid comparisons across subjects and sessions.
(§5) Bivariate analysis among individual measurements of samples allowed for linear fit, which includes summary of fit, analysis of variance, t-test, and correlation analysis for density ellipse. Two-way Ward hierarchical cluster analysis of all metabolite concentrations and strawberry samples accomplished in JMP.

In experiment [5] the test system is perceived sweetness intensity of strawberry fruit (consumer panel). Nature of the experiment: Strawberry consumer panel: multiple regression of volatile concentration against perceived sweetness intensity independent of glucose, fructose or sucrose. The format is in vivo, human. The procedure: Step-wise multiple regressions of all volatile compounds against perceived intensity of sweetness is performed independent of either glucose, fructose, or sucrose concentration, separately (Table 6).
as §4
Multiple regressions were performed with the “enter” method in SPSS for identification of sweetness enhancing volatiles. Individual volatile compound concentrations were regressed using the “enter” method in SPSS Statistics (IBM Corp, Armonk, N.Y., USA).

Experiment [6] relates to texture liking of strawberry fruit (consumer panel). Nature of the experiment: Strawberry consumer panel: bivariate fit to texture liking. Type of experiment: in vivo, human. The settings on record: bivariate linear fit; X = content of the substance in strawberry fruit, Y = Texture liking. How it is done:
as §4, §5

The test system of experiment [7] is perceived sourness of tomato fruit (consumer panel). Nature of the experiment: Tomato consumer taste panel: sourness intensity versus fruit chemical content. Type of experiment: in vivo, human. The settings on record: volatile-induced sourness independent of citric acid. How it is done: Sensory analysis. Fully ripe fruit were harvested, and used for taste panels. A random subset of fruit was used for biochemical analysis. Three biological replicates, each consisting of 2-20 fruit (depending on fruit size), were assayed for each variety. A group of 170 tomato consumers (64 male, 106 female) were recruited to evaluate all the varieties. Panelists were between the ages of 18 and 78 with a median age of 22. Panelists self-classified themselves as 101 White/Caucasian, 14 Black/African-American, 32 Asian/Pacific and […]. An average of 85 (range of 66-95) of these panelists evaluated between 4-6 varieties in a session. All panelists went through a training session to familiarize them with the scaling and procedures. Tomatoes were sliced into wedges (or in halves for grape/cherry types) and each panelist was given two pieces for evaluation. Panelists took a bite of each sample, chewed and swallowed it, and rated overall liking and liking for texture. They then rated the perceived intensities of sweetness, sourness, saltiness, umami sensation, bitterness and overall tomato flavor. They were free to take as many bites as necessary to complete the assessments. They were instructed to take a bite of an unsalted cracker and a sip of water between samples. Samples were presented to the panelists in a randomized order. Hedonic ratings used the hedonic gLMS. […]

SMILES strings stand for the structures.

Take `CC(C)=CCC/C(C)=C/C=O` [geranial]: in experiment [1], the “association with flavor intensity” value is “associated with flavor intensity in univariate models”. The “enhancing sweetness intensity independent of fructose” value in experiment [2] was “enhancing sweetness intensity independent of fructose”. In experiment [3], the “association with sweetness after accounting for fructose” value was “independent predictors of sweetness after accounting for fructose”, the correlation with sweetness entry is “positively correlated with sweetness”, the “contribution to perceived sweetness” value is recorded as “positive contributor to perceived sweetness” and the association with sweetness result is “showed evidence for association with sweetness in univariate models”.

Take `CCC/C=C/C=O` [6728-26-3, (2E)-2-hexenal or trans-2-hexenal]: in experiment [4], the “Parameter Estimates: Estimate” value is listed as 0.0003625. Further, in experiment [5] (volatile concentration regressed against perceived sweetness intensity independent of fructose), the “FRUCTOSE t RATIO” value amounted to 3.349. Moreover, the “GLUCOSE t RATIO” value in experiment [5] (volatile concentration regressed against perceived sweetness intensity independent of glucose) is reported as 3.314. Further, in experiment [5] (volatile concentration regressed against perceived sweetness intensity independent of sucrose), the “SUCROSE t RATIO” value is on record as −0.816. In experiment [6], the “Parameter Estimates-fit to Texture Liking: Estimate” value is 0.000185. Besides, in experiment [3] (multiple regression of volatile against perceived sweetness of tomato, independent of the measures of sugar), the t worked out at 0.051.

In the case of `CSCCC=O` [methional], the “association with flavor intensity” value in experiment [1] was “associated with flavor intensity in univariate models”. Moreover, the association with sweetness result in experiment [3] is “showed evidence for association with sweetness in univariate models”.

For the compound `O=C(CO)[C@@H](O)[C@H](O)[C@H](O)CO` [fructose], the “association with flavor intensity” value in experiment [1] is “associated with flavor intensity in univariate models”. In addition, the association with sweetness result in experiment [3] is “showed evidence for association with sweetness in univariate models”.

In the case of `CC/C=C\CCO` [cis-3-hexen-1-ol], in experiment [1], the “association with flavor intensity after accounting for fructose” value is on record as “independently significant after accounting for fructose” and the “association with flavor intensity” value is “associated with flavor intensity in univariate models”. Also, in experiment [3], the association with sweetness result is reported as “showed evidence for association with sweetness in univariate models”.

For `CCCCOC(C)=O` [123-86-4, butyl acetate], the “association with flavor intensity” value in experiment [1] is listed as “associated with flavor intensity in univariate models”. In experiment [3], the association with sweetness entry is reported as “showed evidence for association with sweetness in univariate models”.

Regarding `CCC(C)C=O` (stereo not shown) [2-methylbutanal], in experiment [1], the “association with flavor intensity after accounting for fructose” value is on record as “independently significant after accounting for fructose” and the “association with flavor intensity” value is “associated with flavor intensity in univariate models”. Moreover, the contribution to sourness result in experiment [7] is listed as “contributed to this sourness”. Moreover, the “enhancing sweetness intensity independent of fructose” value in experiment [2] is “enhancing sweetness intensity independent of fructose”. For the same compound, in experiment [3], the “association with sweetness after accounting for fructose” value is “independent predictors of sweetness after accounting for fructose”, the correlation with sweetness result was “negatively correlated with sweetness”, the “contribution to perceived sweetness” value was “inhibitory effect” and the association with sweetness entry is recorded as “showed evidence for association with sweetness in univariate models”.

As to `O=CCc1ccccc1` [phenylacetaldehyde], the “association with flavor intensity” value in experiment [1] is given as “associated with flavor intensity in univariate models”. The “association with tomato flavor intensity” value in experiment [1] (volatiles with high odor unit values) is “not associated with tomato flavor intensity”. For the same compound, the association with sweetness entry in experiment [3] is on record as “showed evidence for association with sweetness in univariate models”.

Consider `CC(C)CCO` [3-methyl-1-butanol], for which, in experiment [1] (listed as 3-methyl-1-butenol), the “association with flavor intensity after accounting for fructose” value is recorded as “independently significant after accounting for fructose”. The “association with flavor intensity” value in experiment [1] was “associated with flavor intensity in univariate models”. Besides, the “enhancing sweetness intensity independent of fructose” value in experiment [2] is given as “enhancing sweetness intensity independent of fructose”. Also, in experiment [3], the “association with sweetness after accounting for fructose” value is on record as “independent predictors of sweetness after accounting for fructose” and the association with sweetness result is listed as “showed evidence for association with sweetness in univariate models”.
